Non-standard residues stand in square brackets, D forms with d. Residues, ends and D or L forms follow the SMILES beside them. Gly(octyl) = CCCCCCCC[C@H](N)C(=O)O
Test system: rats
Assay: GLP-compliant 28-day inhalation toxicity study in rats
Format: in vivo, rat
Experimental: In a GLP-compliant 28-day inhalation toxicity study in rats, conducted by Charles River Laboratories Preclinical Services, Tranent, Edinburgh, UK, the formulation described in Example 2 and dilutions thereof as well as the vehicle were administered using the Pari eFlow® XL 30 nebulizer device (Pari Pharma, Starnberg, Germany) for 100 min per day for 28 days, followed by a 2-week recovery period. […] Ten animals were used for the main toxicity study, and 5 additional animals for the recovery phase. Parameters assessed included clinical signs, body weights, food consumption, ophthalmic examination, clinical pathology, gross necropsy findings, organ weights and histopathologic examinations. […] This was associated with reduction in food consumption in treated animals. There was a good recovery in body weight gain during the recovery period between day 28 and 42.
These changes resolved during the recovery period and were considered a non-adverse, adaptive response to mild irritation. […] This slight increase in macrophage accumulation was considered a nonspecific response to the inhalation of high concentrations of material exceeding the clearance capacity of the lung.

Structure (SMILES): CCCCCCCC[C@@H]1NC(=O)[C@@H]2CCCN2C(=O)[C@H]2CCCN2C(=O)[C@H](Cc2ccc(O)cc2)NC(=O)[C@H](CCCCN)NC(=O)[C@H](CCC(N)=O)NC(=O)[C@@H]2CCCN2C(=O)[C@@H]2CCCN2C(=O)[C@H]([C@@H](C)CC)NC(=O)[C@H](CO)NC(=O)[C@H](C)NC(=O)[C@H]([C@@H](C)O)NC(=O)[C@H](CCC(=O)O)NC1=O [cyclo(-OctG-Glu-Thr-Ala-Ser-Ile-Pro-Pro-Gln-Lys-Tyr-^DPro-Pro-)] (cyclo([Gly(octyl)]ETASIPPQKY[dP]P))
- clinical signs or ophthalmic findings (rat, 11, 53 and 119 mg/kg/day): no clinical signs or ophthalmic findings
- histopathology of the larynx (rat, in vivo): focal minimal squamous metaplasia without cellular atypia of dysplasia
- organ weights or gross findings (rat, in vivo): no treatment-related changes
- clinical pathology findings considered toxicologically relevant (rat, haematology, coagulation, clinical chemistry, urinalysis): no findings

Source: patent US11844823B2, “Beta-hairpin peptidomimetic with elastase inhibitory activity and aerosol dosage forms thereof” (POLYPHOR AG, priority 2016, dated 2023)
